Assay results: patent publication US6462174B1, “Amorphous compound” (AstraZeneca AB, priority 2001, dated 2002)

Assays:
[1] = Differential Scanning Calorimetry (DSC); type: physicochemical; conditions: dry amorphous lisinopril
Method: Differential Scanning Calorimetry (DSC) was performed on approximately 0.5-3 mg sample, using a Mettler DSC820 instrument, according to standard methods, for example those described in Höhne et al. (1996) Differential scanning Calorimetry, Springer, Berlin.

[2] = Thermal Mechanical Analysis (TMA); type: physicochemical; conditions: heating rate 10° C./min, 30-160° C.
Method: The method involves compressing 140 mg of material in a punch and die (3 mm) to 2 KN. The compressed pellet was then placed on the TMA and the 1.1 mm probe placed on the top face. A heating rate of 10° C./min was used and the sample was heated from 30-160° C.

[3] = Dynamic vapour sorption (DVS) stability test; type: physicochemical; conditions: first sorption process (Cycle 1 Sorp), FIG. 3
[4] = cited from earlier work
[5] = Solubility in toluene (antisolvent); type: physicochemical
Method: When the volume was reduced to 100-150 ml, another portion of toluene was added and the procedure repeated.

Row | Compound | glass transition temperature (Tg) [1] [°C] | glass transition temperature [2] [°C] | physical stability to water-induced crystallisation (DVS) [3] | effective half-life of accumulation ([4]; multiple dosing) | time to peak serum concentrations ([4]; oral administration) [h] | solubility in toluene [5]
1 | NCCCC[C@H](NC(CCc1ccccc1)C(=O)O)C(=O)N1CCC[C@H]1C(=O)O (stereo partly drawn) [amorphous lisinopril, (S)-1-[N^2-(1-carboxy-3-phenylpropyl]-L-lysyl]-L-proline] | 125 | 129 | no expulsion of absorbed water due to recrystallisation was observed |  |  | 
2 | NCCCC[C@H](NC(CCc1ccccc1)C(=O)O)C(=O)N1CCC[C@H]1C(=O)O (stereo partly drawn) [lisinopril, (S)-1-[N^2-(1-carboxy-3-phenylpropyl]-L-lysyl]-L-proline] |  |  |  | about 12.6 hours | ≤ 7 | insoluble
